In one assay the target is T1, PDGFRβ (Homo sapiens, UniProt P09619).
T1 construct: made in house
The assay can be described thus: Competition binding assay, PDGFRβ Kd. The note with it: competition binding. In outline: (§1)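 Compound displacement of kinase from bead-immobilized ligand is measured by qPCR after 1 h equilibration at room temperature. Kinases are T7 phage fusions or DNA-tagged HEK-293 products.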

Assay [1] addresses kinase panel containing either 386 or 392 distinct kinases. The assay is described as follows: Kinase selectivity score S10 from competition binding panel. The note with it: 10 μM, panel of 386 or 392 distinct kinases. An outline of the steps: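 S10 is the number of kinases with percent-of-control under 10, divided by all distinct wild-type kinases tested, from a single 10 μM concentration. Binding measured by qPCR of kinase recovered from ligand-coated beads after 1 h equilibrium at room temperature; kinases were phage fusions or DNA-tagged HEK-293 products.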

A further assay addresses T2, FLT3 (Homo sapiens, UniProt P36888).
T2 construct: made in house
T2 sequence (P36888 27-993): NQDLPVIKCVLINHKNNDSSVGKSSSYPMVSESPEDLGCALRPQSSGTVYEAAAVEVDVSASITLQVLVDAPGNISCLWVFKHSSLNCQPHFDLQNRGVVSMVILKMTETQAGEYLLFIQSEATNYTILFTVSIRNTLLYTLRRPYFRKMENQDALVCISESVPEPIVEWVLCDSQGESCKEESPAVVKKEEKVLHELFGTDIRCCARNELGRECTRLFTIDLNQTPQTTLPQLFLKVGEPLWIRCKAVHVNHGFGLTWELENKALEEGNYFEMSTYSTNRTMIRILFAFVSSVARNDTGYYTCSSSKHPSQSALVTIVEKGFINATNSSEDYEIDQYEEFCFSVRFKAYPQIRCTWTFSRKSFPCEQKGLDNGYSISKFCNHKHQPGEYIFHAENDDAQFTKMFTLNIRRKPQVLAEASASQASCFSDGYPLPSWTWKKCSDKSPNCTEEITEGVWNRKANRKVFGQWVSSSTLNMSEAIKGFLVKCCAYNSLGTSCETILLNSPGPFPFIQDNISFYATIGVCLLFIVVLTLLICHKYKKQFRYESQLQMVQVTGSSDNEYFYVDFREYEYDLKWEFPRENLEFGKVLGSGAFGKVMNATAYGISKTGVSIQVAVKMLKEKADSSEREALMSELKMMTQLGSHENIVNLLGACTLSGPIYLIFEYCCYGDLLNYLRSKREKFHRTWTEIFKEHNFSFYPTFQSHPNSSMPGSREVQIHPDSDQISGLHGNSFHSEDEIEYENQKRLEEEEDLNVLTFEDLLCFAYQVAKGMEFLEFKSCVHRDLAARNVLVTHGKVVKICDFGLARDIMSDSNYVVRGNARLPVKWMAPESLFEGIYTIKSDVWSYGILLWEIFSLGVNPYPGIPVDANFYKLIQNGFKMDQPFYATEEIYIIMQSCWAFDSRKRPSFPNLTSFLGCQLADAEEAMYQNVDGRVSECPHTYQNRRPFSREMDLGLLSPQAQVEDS
The assay can be described thus: Competition binding assay, FLT3 Kd. As to conditions: competition binding. In outline: as §1

Structures are written as SMILES.

Data on 20 compounds can be found in US9938261B2, “Heterocyclic compounds and methods of use thereof” (AMBIT BIOSCIENCES CORPORATION, priority 2011, dated 2018).

T1 sequence (P09619 33-1106): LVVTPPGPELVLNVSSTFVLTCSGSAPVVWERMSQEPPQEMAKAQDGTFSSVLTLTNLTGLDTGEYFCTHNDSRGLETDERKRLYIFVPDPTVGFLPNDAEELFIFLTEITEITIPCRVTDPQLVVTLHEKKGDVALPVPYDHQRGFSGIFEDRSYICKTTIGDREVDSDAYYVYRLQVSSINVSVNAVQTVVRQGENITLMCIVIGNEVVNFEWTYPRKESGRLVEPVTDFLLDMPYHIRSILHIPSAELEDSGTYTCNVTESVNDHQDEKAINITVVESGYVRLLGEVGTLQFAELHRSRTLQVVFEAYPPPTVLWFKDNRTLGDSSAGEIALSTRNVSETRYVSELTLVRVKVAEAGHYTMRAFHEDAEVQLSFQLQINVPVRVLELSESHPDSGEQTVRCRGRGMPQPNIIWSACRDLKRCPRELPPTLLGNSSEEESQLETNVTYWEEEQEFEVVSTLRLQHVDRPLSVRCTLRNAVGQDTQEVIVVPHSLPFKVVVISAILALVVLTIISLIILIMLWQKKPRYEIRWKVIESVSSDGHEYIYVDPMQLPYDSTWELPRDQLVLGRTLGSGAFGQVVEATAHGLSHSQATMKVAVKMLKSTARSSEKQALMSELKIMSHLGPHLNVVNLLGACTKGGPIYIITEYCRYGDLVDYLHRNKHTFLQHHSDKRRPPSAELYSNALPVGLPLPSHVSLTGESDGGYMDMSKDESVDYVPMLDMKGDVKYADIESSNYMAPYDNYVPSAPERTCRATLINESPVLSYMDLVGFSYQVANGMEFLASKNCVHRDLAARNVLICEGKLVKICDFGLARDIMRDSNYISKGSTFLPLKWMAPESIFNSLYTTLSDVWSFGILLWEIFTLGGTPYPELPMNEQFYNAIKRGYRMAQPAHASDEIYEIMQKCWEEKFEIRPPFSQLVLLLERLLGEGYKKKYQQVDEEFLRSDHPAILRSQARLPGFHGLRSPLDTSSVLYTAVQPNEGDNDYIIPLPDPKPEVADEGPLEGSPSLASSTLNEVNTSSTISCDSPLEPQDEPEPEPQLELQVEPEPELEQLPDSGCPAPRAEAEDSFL

In the case of `N#Cc1ccc2ncn(Cc3ccc4nc(N[C@@H]5CCCC[C@H]5O)sc4c3)c2c1` [Example 111, 1-((2-(((1R,2R)-2-hydroxycyclohexyl)amino)benzo[d]thiazol-6-yl)methyl)-1H-benzo[d]imidazole-6-carbonitrile], the Kd lay within 500 to 2000 nM at PDGFRβ and 1000 to 5000 nM on FLT3. Besides, the “Kinase specificity S(10)” value in assay [1] was “A (A≤0.01)”.

`O[C@@H]1CCCC[C@H]1Nc1nc2ccc(Cc3cnc4cc(-n5cccn5)ccn34)cc2s1` [Example 167, (1R,2R)-2-((6-((7-(1H-pyrazol-1-yl)imidazo[1,2-a]pyridin-3-yl)methyl)benzo[d]thiazol-2-yl)amino)cyclohexanol]: the Kd lay in the range of 50 to 500 nM on PDGFRβ and 1000 to 5000 nM at FLT3. Moreover, in assay [1], the “Kinase specificity S(10)” value is on record as “A (A≤0.01)”.

As to `CNC(=O)c1ccc2ncc(Cc3ccc4nc(N[C@@H]5CCCC[C@H]5O)sc4c3)n2n1` [Example 143, 3-((2-(((1R,2R)-2-hydroxycyclohexyl)amino)benzo[d]thiazol-6-yl)methyl)-N-methylimidazo[1,2-b]pyridazine-6-carboxamide], the Kd lay in the range of 500 to 2000 nM at PDGFRβ and 1000 to 5000 nM on FLT3. Besides, in assay [1], the “Kinase specificity S(10)” value is on record as “B (0.01<B≤0.02)”.

Turning to `O[C@@H]1CCCC[C@H]1Nc1nc2ccc(Cn3cnc4cc(-n5cncn5)ccc43)cc2s1` [Example 161, (1R,2R)-2-((6-((5-(1H-1,2,4-triazol-1-yl)-1H-benzo[d]imidazol-1-yl)methyl)benzo[d]thiazol-2-yl)amino)cyclohexanol], the Kd lay within 50 to 500 nM on PDGFRβ and 1000 to 5000 nM at FLT3. For the same compound, in assay [1], the “Kinase specificity S(10)” value was “A (A≤0.01)”.

Consider `O[C@@H]1CCCC[C@H]1Nc1nc2ccc(Cc3cnc4ccc(-n5cccn5)cn34)cc2s1` [Example 159, (1R,2R)-2-((6-((6-(1H-pyrazol-1-yl)imidazo[1,2-a]pyridin-3-yl)methyl)benzo[d]thiazol-2-yl)amino)cyclohexanol], for which the results for the Kd on PDGFRβ and on FLT3 were 500 to 2000 nM and 1000 to 5000 nM, respectively. For the same compound, the “Kinase specificity S(10)” value in assay [1] is “A (A≤0.01)”.

Turning to `O[C@@H]1CCCC[C@H]1Nc1nc2c(F)cc(Cn3cnc4cccnc43)c(F)c2s1` [Example 168, (1R,2R)-2-((6-((3H-imidazo[4,5-b]pyridin-3-yl)methyl)-4,7-difluorobenzo[d]thiazol-2-yl)amino)cyclohexanol], the Kd on PDGFRβ was above 2000 nM; on FLT3 it was 1000 to 5000 nM. In addition, the “Kinase specificity S(10)” value in assay [1] was “A (A≤0.01)”.

With `CNC(=O)c1ccc2c(c1)ncn2Cc1ccc2nc(N[C@@H]3CCCC[C@H]3O)sc2c1` [Example 173, 1-((2-(((1R,2R)-2-hydroxycyclohexyl)amino)benzo[d]thiazol-6-yl)methyl)-N-methyl-1H-benzo[d]imidazole-5-carboxamide], the Kd on PDGFRβ was in the range of 50 to 500 nM; on FLT3 it was 200 to 1000 nM. The “Kinase specificity S(10)” value in assay [1] is recorded as “B (0.01<B≤0.02)”.

As for `O[C@H]1[C@@H](O)CCC[C@H]1Nc1nc2ccc(Cn3cnc4cc(F)cnc43)cc2s1` [Example 228, (1S,2R,3R)-3-((6-((6-fluoro-3H-imidazo[4,5-b]pyridin-3-yl)methyl)benzo[d]thiazol-2-yl)amino)cyclohexane-1,2-diol], the Kd is 50 to 500 nM at PDGFRβ and above 5000 nM on FLT3. Also, the “Kinase specificity S(10)” value in assay [1] is on record as “A (A≤0.01)”.

`O[C@@H]1CCCC[C@H]1Nc1nc2c(Br)cc(Cn3cnc4cccnc43)cc2s1` [Example 166, (1R,2R)-2-((6-((3H-imidazo[4,5-b]pyridin-3-yl)methyl)-4-bromobenzo[d]thiazol-2-yl)amino)cyclohexanol]: the Kd on PDGFRβ is above 2000 nM; at FLT3 it was 200 to 1000 nM. Also, the “Kinase specificity S(10)” value in assay [1] is on record as “A (A≤0.01)”.

`COCCOc1ccn2c(Cc3ccc4nc(N[C@@H]5CCCC[C@H]5O)sc4c3)cnc2c1` [Example 153, (1R,2R)-2-((6-((7-(2-methoxyethoxy)imidazo[1,2-a]pyridin-3-yl)methyl)benzo[d]thiazol-2-yl)amino)cyclohexanol]: the Kd on PDGFRβ fell in the range of 50 to 500 nM; on FLT3, 1000 to 5000 nM. Further, the “Kinase specificity S(10)” value in assay [1] was “A (A≤0.01)”.

In the case of `COc1nc2c(cc1Br)ncn2Cc1ccc2nc(N[C@@H]3CCCC[C@H]3O)sc2c1` [Example 123, (1R,2R)-2-((6-((6-bromo-5-methoxy-3H-imidazo[4,5-b]pyridin-3-yl)methyl)benzo[d]thiazol-2-yl)amino)cyclohexanol], the Kd at PDGFRβ is at most 50 nM; on FLT3, 200 to 1000 nM. In addition, the “Kinase specificity S(10)” value in assay [1] is given as “B (0.01<B≤0.02)”.

On to `O[C@@H]1CCCC[C@H]1Nc1nc2ccc(Cn3cnc4cc(Cl)c(Cl)nc43)cc2s1` [Example 137, (1R,2R)-2-((6-((5,6-dichloro-3H-imidazo[4,5-b]pyridin-3-yl)methyl)benzo[d]thiazol-2-yl)amino)cyclohexanol], for which the Kd is at most 50 nM on PDGFRβ and 200 to 1000 nM on FLT3. The “Kinase specificity S(10)” value in assay [1] is “A (A≤0.01)”.

In the case of `O[C@@H]1CCCC[C@H]1Nc1nc2ccc(Cn3cnc4cccnc43)c(F)c2s1` [Example 164, (1R,2R)-2-((6-((3H-imidazo[4,5-b]pyridin-3-yl)methyl)-7-fluorobenzo[d]thiazol-2-yl)amino)cyclohexanol], the dissociation constant (Kd) on PDGFRβ was in the range of 500 to 2000 nM; on FLT3, 1000 to 5000 nM. The “Kinase specificity S(10)” value in assay [1] is “A (A≤0.01)”.

Turning to `O[C@@H]1[C@H](O)CCC[C@H]1Nc1nc2ccc(Cc3cnc4cc(-n5nccn5)ccn34)cc2s1` [Example 231, (1R,2S,3R)-3-((6-((7-(2H-1,2,3-triazol-2-yl)imidazo[1,2-a]pyridin-3-yl)methyl)benzo[d]thiazol-2-yl)amino)cyclohexane-1,2-diol], the Kd at PDGFRβ is 50 to 500 nM; on FLT3, 1000 to 5000 nM. Further, in assay [1], the “Kinase specificity S(10)” value is “A (A≤0.01)”.

As to `O[C@@H]1CCCC[C@H]1Nc1nc2ccc(Cc3cnc4ccc(Cl)nn34)cc2s1` [Example 158, (1R,2R)-2-((6-((6-chloroimidazo[1,2-b]pyridazin-3-yl)methyl)benzo[d]thiazol-2-yl)amino)cyclohexanol], the Kd at PDGFRβ is at most 50 nM; at FLT3, 200 to 1000 nM. Besides, the “Kinase specificity S(10)” value in assay [1] is recorded as “B (0.01<B≤0.02)”.

On to `Oc1ccc2c(c1)ncn2Cc1ccc2nc(N[C@@H]3CCCC[C@H]3O)sc2c1` [Example 147, 1-((2-(((1R,2R)-2-hydroxycyclohexyl)amino)benzo[d]thiazol-6-yl)methyl)-1H-benzo[d]imidazol-5-ol], for which the figures for the Kd at PDGFRβ and on FLT3 were at most 50 nM and 200 to 1000 nM, respectively. Further, the “Kinase specificity S(10)” value in assay [1] was “A (A≤0.01)”.

As to `O[C@@H]1CCCC[C@H]1Nc1nc2ccc(Cn3cnc4cc(I)cnc43)cc2s1` [Example 146, (1R,2R)-2-((6-((6-iodo-3H-imidazo[4,5-b]pyridin-3-yl)methyl)benzo[d]thiazol-2-yl)amino)cyclohexanol], the results for the Kd on PDGFRβ and on FLT3 were at most 50 nM and 200 to 1000 nM, respectively. Besides, the “Kinase specificity S(10)” value in assay [1] is “B (0.01<B≤0.02)”.

Take `O[C@@H]1CCCC[C@H]1Nc1nc2ccc(Cc3cnc4cccnn34)cc2s1` [Example 131, (1R,2R)-2-((6-(imidazo[1,2-b]pyridazin-3-ylmethyl)benzo[d]thiazol-2-yl)amino)cyclohexanol]: the figures for the Kd on PDGFRβ and at FLT3 were at most 50 nM and at most 200 nM, respectively. In addition, in assay [1], the “Kinase specificity S(10)” value was “B (0.01<B≤0.02)”.

For `O[C@@H]1CCCC[C@H]1Nc1nc2ccc(Cc3cnc4ccc(N5CCOCC5)nn34)cc2s1` [Example 155, (1R,2R)-2-((6-((6-morpholinoimidazo[1,2-b]pyridazin-3-yl)methyl)benzo[d]thiazol-2-yl)amino)cyclohexanol], the Kd on PDGFRβ is 50 to 500 nM; on FLT3 it was at most 200 nM. In assay [1], the “Kinase specificity S(10)” value was “B (0.01<B≤0.02)”.

As to `C=Cc1ccc2c(c1)ncn2Cc1ccc2nc(N[C@@H]3CCC[C@@H](O)[C@H]3O)sc2c1` [Example 232, (1R,2S,3R)-3-((6-((5-vinyl-1H-benzo[d]imidazol-1-yl)methyl)benzo[d]thiazol-2-yl)amino)cyclohexane-1,2-diol], the figures for the Kd at PDGFRβ and at FLT3 were at most 50 nM and at most 200 nM, respectively. Moreover, in assay [1], the “Kinase specificity S(10)” value is listed as “A (A≤0.01)”.

One may read the Kd as a measure of binding affinity in units of concentration. Low readings indicate higher affinity, high ones lower affinity.
